Tests used:
[1] = system: E. coli (strain NCTC 10418); experiment: Colony-forming unit (CFU) counting; type: cell-based, Escherichia coli; details: 30 minutes at 37° C. in PBS, even at 2 μg/ml
Experimental: (§1) Late-log phase E. coli (strain NCTC 10418), P. aeruginosa (strain PAO1, ATCC 15692) and S. aureus (Wood 46, NCTC 7121) were resuspended in PBS and treated with different concentrations of glatiramer acetate (GA) or LL-37 (Innovagen, Lund, Sweden) and incubated on a shaker for 30 minutes at 37° C. Subsequently, a dilution series was performed to achieve a suitable amount of bacteria on the 5% blood agar plates. The 5% blood agar streak plates were cultured at 37° C. for 16 h and the resulting CFUs on the blood agar plates were imaged with a digital camera and counted with the aid of the software ImageJ 1.48v.

[2] = system: S. aureus (Wood 46, NCTC 7121); experiment: Antimicrobial susceptibility testing by flow cytometry-based assay (LIVE/DEAD BacLight, Syto9/PI); type: cell-based, Staphylococcus aureus; details: 30 minutes
Experimental: (§2) E. coli (strain NCTC 10418), P. aeruginosa (Strain PAO1) and S. aureus (Wood 46, NCTC 7121) cells were grown in 5 mL of Todd Hewitt Broth medium (THB; Sigma-Aldrich). Bacteria were cultivated at 37° C. for 15 h in a 15 mL tube to obtain late-log phase cultures. Bacterial cultures were pelleted at 3096 g for 10 minutes; the supernatant was discarded and bacteria were resuspended in phosphate-buffered saline (PBS) supplemented with 40 mg/ml human albumin to mimic chemical properties of blood. Bacteria were diluted to a standardized inoculum of 10^9 CFU/mL.
(§3) Bacteria were treated with GA, LL-37, Piperacillin/Tazobactam or Vancomycin in varying concentrations, i.e. 50, 25, 10 or 2 μg/ml, for 30 minutes. As a positive control, bacteria were treated with 7% isopropanol. Hereafter, bacteria were pelleted at 3096 g for 10 minutes; the supernatant was discarded and bacteria were resuspended in PBS. The antimicrobial effect was tested in a well-established and widely used flow cytometry-based assay (LIVE/DEAD® BacLight™ Bacterial Viability and Counting Kit (L34856), Molecular Probes/Invitrogen) according to manufacturer's manual.
(§4) For each bacteria, the flow cytometry-based assay was repeated four times.

[3] = system: S. aureus (Wood 46, NCTC 7121); experiment: Colony-forming unit (CFU) counting; type: cell-based, Staphylococcus aureus; details: 30 minutes at 37° C. in PBS
Experimental: as §1

[4] = system: E. coli (strain NCTC 10418); experiment: Antimicrobial susceptibility testing by flow cytometry-based assay (LIVE/DEAD BacLight, Syto9/PI); type: cell-based, Escherichia coli; details: 50 μg/ml, 30 minutes
Experimental: as §2, §3, §4
Flow cytometry was used to determine the antimicrobial activity of GA and LL-37. The flow cytometry diagrams show the results after treatment with 50 μg/ml LL-37, GA, piperacillin/tazobactam, 7% isopropanol and the untreated control. […] This gating strategy was primarily applied to avoid counting beads in the upper right corner of the FS-SS. […] Thus, a two-color fluorescence assay of bacterial viability, including PI and Syto9 staining, was applied. Syto9 stains all bacteria in a population, i.e. those with intact and those with damaged membranes. In contrast, propidium iodide (PI) penetrates only bacteria with damaged membranes, thereby making quantification of bacterial viability possible.

[5] = system: P. aeruginosa (Strain PAO1); experiment: as above; type: cell-based
Experimental: as §2, §3, §4
The antibacterial effect of GA on the gram-negative strain P. aeruginosa was tested by carrying out an experiment as described in Example 1. […] Although the untreated control stained positive for PI, this seemed to be explained by the capability of intact P. aeruginosa to secrete large quantities of DNA to the extracellular milieu.

[6] = system: P. aeruginosa (strain PAO1, ATCC 15692); experiment: Colony-forming unit (CFU) counting; type: cell-based, Pseudomonas aeruginosa; details: 30 minutes at 37° C. in PBS, in comparison with LL-37
Experimental: as §1

E. coli (NCTC 10418) [7] = experiment: Transmission electron microscopy of treated bacteria; type: cell-based, Escherichia coli
Text: (§5) Transmission electron microscopy (TEM) was applied to examine the ultrastructural changes in P. aeruginosa (PAO1), S. aureus (Wood 46) and E. coli (NCTC 10418) induced after treatment with GA and LL-37. […] This critical alteration in the outer membrane of E. coli has previously been described as a disintegration of the outer membrane into micelles and vesicle-like structures (Meincken, M., D. L. Holroyd, and M. Rautenbach, Atomic force microscopy study of the effect of antimicrobial peptides on the cell envelope of Escherichia coli. Antimicrob Agents Chemother, 2005. 49(10): p. 4085-92). […] After incubation with LL-37 and GA, we found burst cells, but this observation was most significant after treatment with LL-37 (FIG. 9). Scale bar, 0.5 μm. Experiments were performed as 2 replicates.

P. aeruginosa (PAO1) [8] = experiment: Binding of Alexa Fluor 488-labeled GA to bacteria (MFI by flow cytometry); design: species or system Pseudomonas aeruginosa; details: PBS + 50 mM NaCl, total salt 200 mM, GA 50 and 10 μg/ml
Experimental: (§6) GA was diluted in freshly made 0.1 M NaHCO3 and labeled with Alexa Fluor 488 according to manufacturer's instruction. Late-log phase E. coli (strain NCTC 10418), P. aeruginosa (strain PAO1, ATCC 15692) and S. aureus (Wood 46, NCTC 7121) were resuspended in PBS or PBS supplemented with 50 mM NaCl; treated with either 50 μg/ml or 10 μg/ml Alexa Fluor® 488-labeled GA and incubated on a shaker at 37° C. for 30 minutes. Hereafter, bacteria were diluted 1:100 in PBS and analyzed on a Novocyte™ flow cytometer.
(§7) This constitutes a problem when for example treating patients with cystic fibrosis. These patients have a high salt concentration in their lungs of about 150-200 mM, and it is therefore critical that drugs used for treating these patients are active at such high salt concentrations (Gilljam H et al., Scand J Clin Lab Invest. 1989 April; 49(2):121-4). Therefore, the binding capacity of GA to bacteria resuspended in PBS or in PBS supplemented with 50 mM NaCl. PBS+50 mM NaCl results in a total salt concentration of 200 mM. […]
(§8) Mean Fluorescence intensities (MFI) were assessed by flow cytometry to quantify the binding capacity of GA to the bacterial membrane. […]

E. coli (NCTC 10418) [9] = experiment: as above; design: species or system Escherichia coli; details: PBS + 50 mM NaCl, total salt 200 mM, GA 50 and 10 μg/ml
Experimental: as §6, §7, §8

P. aeruginosa (PAO1) [10] = experiment: Transmission electron microscopy of treated bacteria; type: cell-based, Pseudomonas aeruginosa
Text: as §5

S. aureus (Wood 46) = experiment: as above; type: cell-based, Staphylococcus aureus
Text: as §5

[11] = within the 30 minutes of treatment

Substance: Glatiramer acetate [GA]
- antibacterial effect by CFU counting (in words) [1]: enhanced ability to kill E. coli
- percentage of bacteria testing positive for PI [2]: 12.1%
- antibacterial effect by CFU counting (in words) [3]: low antimicrobial impact
- percentage of bacteria testing positive for PI [4]: 17.7%
- percentage of bacteria testing positive for Syto-9 [4]: 78.3%
- antimicrobial activity (in words) [5, 11]: more potent than when treating bacteria with 7% isopropanol
- decreased bacterial inoculum [5, 11]: ~75%
- increased PI positivity ([5]; within the 30 minutes of treatment (FIG. 4 overview)): ~50%
- antibacterial effect by CFU counting (in words) [6]: higher antimicrobial activity
- ultrastructural changes (TEM, in words) (E. coli (NCTC 10418) [7]): Signs of damage to the bacterial membrane
- binding capacity to bacteria (MFI, in words) (P. aeruginosa (PAO1) [8]): retained its binding capacity
- binding capacity to bacteria (MFI, in words) (E. coli (NCTC 10418) [9]): retained its binding capacity
- ultrastructural changes (TEM, in words) (P. aeruginosa (PAO1) [10]): dramatically reduced number of P. aeruginosa
- ultrastructural changes (TEM, in words) (S. aureus (Wood 46)): burst cells

Source: patent US10166253B2, “Positively charged co-polymers for use as antimicrobial agents” (priority 2014, dated 2019)
